# Results from patent publication US12240816B2, “Deuterated compounds and uses thereof” (Aldeyra Therapeutics, Inc., priority 2015, dated 2025).
# Where “and” joins values, the source holds several entries; their conditions need not be identical. Equal entries are not always repeated. Entries after “also recorded” stand apart in the source; their conditions may differ. Marks after values point to notes of the source that are not given here.
# Key:
# [1] = test system: rat hippocampal cultures; experiment: cells; assay type: cell-based
# [2] = test system: human hepatocytes; assay type: in vitro ADME
# [3] = test system: dog hepatocytes
# [4] = test system: rat hippocampal cultures; experiment: Propidium iodide cell death assay, protection from hydrogen peroxide toxicity; assay type: cell-based
# [5] = test system: monkey hepatocytes
# [6] = test system: rat hepatocytes
# [7] = CFDA, Captisol formulation, 10 μM hydrogen peroxide, 5 h
# [8] = CFDA, DMSO formulation, 10 μM hydrogen peroxide, 5 h
# [9] = NS2 (CoreRx micro-milled, Captisol) 0.1 μM + 10 μM hydrogen peroxide, 5 h
# [10] = NS2 (CoreRx micro-milled, Captisol) 1 μM + 10 μM hydrogen peroxide, 5 h
# [11] = NS2 (CoreRx micro-milled, Captisol) 10 μM + 10 μM hydrogen peroxide, 5 h
# [12] = NS2 (CoreRx micro-milled, Captisol) 100 μM + 10 μM hydrogen peroxide, 5 h
# [13] = NS2 (CoreRx micro-milled, Captisol) 1 mM + 10 μM hydrogen peroxide, 5 h
# [14] = NS2 (CoreRx micro-milled, DMSO) 0.1 μM + 10 μM hydrogen peroxide, 5 h
# [15] = NS2 (CoreRx micro-milled, DMSO) 1 μM + 10 μM hydrogen peroxide, 5 h
# [16] = NS2 (CoreRx micro-milled, DMSO) 10 μM + 10 μM hydrogen peroxide, 5 h
# [17] = NS2 (CoreRx micro-milled, DMSO) 100 μM + 10 μM hydrogen peroxide, 5 h
# [18] = NS2 (CoreRx micro-milled, DMSO) 1 mM + 10 μM hydrogen peroxide, 5 h
# [19] = NS2 (J-Star non-milled, Captisol) 0.1 μM + 10 μM hydrogen peroxide, 5 h
# [20] = NS2 (J-Star non-milled, Captisol) 1 μM + 10 μM hydrogen peroxide, 5 h
# [21] = NS2 (J-Star non-milled, Captisol) 10 μM + 10 μM hydrogen peroxide, 5 h
# [22] = NS2 (J-Star non-milled, Captisol) 100 μM + 10 μM hydrogen peroxide, 5 h
# [23] = NS2 (J-Star non-milled, Captisol) 1 mM + 10 μM hydrogen peroxide, 5 h
# [24] = NS2 (J-Star non-milled, DMSO) 0.1 μM + 10 μM hydrogen peroxide, 5 h
# [25] = NS2 (J-Star non-milled, DMSO) 1 μM + 10 μM hydrogen peroxide, 5 h
# [26] = NS2 (J-Star non-milled, DMSO) 10 μM + 10 μM hydrogen peroxide, 5 h
# [27] = NS2 (J-Star non-milled, DMSO) 100 μM + 10 μM hydrogen peroxide, 5 h
# [28] = NS2 (J-Star non-milled, DMSO) 1 mM + 10 μM hydrogen peroxide, 5 h
# [29] = PI, Captisol formulation, 10 μM hydrogen peroxide, 5 h
# [30] = PI, DMSO formulation, 10 μM hydrogen peroxide, 5 h
compound,measurement,setting,value
"CC(C)(O)c1nc2ccc(Cl)cc2cc1N [NS2, 2-(3-amino-6-chloroquinolin-2-yl)propan-2-ol]",Full Efficacy Concentration,[1]; [7],100 µM
same,No effect Concentration,[1]; [7],1 µM
same,EC50,"[1]; CFDA, Captisol formulation, 10 μM hydrogen peroxide, 5 h, listed as CoreRx NS2 (milled), read-out: EC50 ± SE",7 ± 4 µM
same,EC50,"[1]; CFDA, Captisol formulation, 10 μM hydrogen peroxide, 5 h, listed as NS2 (J-Star), read-out: EC50 ± SE",9.1 µM
same,Full Efficacy Concentration,[1]; [8],100 µM
same,No effect Concentration,[1]; [8],1 µM
same,EC50,"[1]; CFDA, DMSO formulation, 10 μM hydrogen peroxide, 5 h, values with * are estimates, listed as NS2 (CoreRx), read-out: EC50 ± SE",9.8 µM
same,EC50,"[1]; CFDA, DMSO formulation, 10 μM hydrogen peroxide, 5 h, values with * are estimates, listed as NS2 (J-Star), read-out: EC50 ± SE",2.6 µM
same,Full protection concentration,"[1]; CFDA, both NS2 formulations and both batches",100 µM
same,no effect concentration,"[1]; CFDA, both formulations and batches",1 µM
same,% of Control (CFDA),[1]; [9],58 ± 4%
same,"CFDA signal, Mean",[1]; [9],26931
same,% of Control (CFDA),[1]; [10],64 ± 6%
same,"CFDA signal, Mean",[1]; [10],29693
same,% of Control (CFDA),[1]; [11],80 ± 8%
same,"CFDA signal, Mean",[1]; [11],37577*
same,% of Control (CFDA),[1]; [12],100 ± 6%
same,"CFDA signal, Mean",[1]; [12],46508*
same,% of Control (CFDA),[1]; [13],92 ± 07%
same,"CFDA signal, Mean",[1]; [13],42889*
same,% of Control (CFDA),[1]; [14],61 ± 2%
same,"CFDA signal, Mean",[1]; [14],26314
same,% of Control (CFDA),[1]; [15],62 ± 6%
same,"CFDA signal, Mean",[1]; [15],26633
same,% of Control (CFDA),[1]; [16],79 ± 3%
same,"CFDA signal, Mean",[1]; [16],34180*
same,"CFDA signal, replicate wells",[1]; [16],32661 (3×) and 34496 and 38422
same,% of Control (CFDA),[1]; [17],101 ± 6%
same,"CFDA signal, Mean",[1]; [17],43328*
same,% of Control (CFDA),[1]; [18],90 ± 3%
same,"CFDA signal, Mean",[1]; [18],38622*
same,% of Control (CFDA),[1]; [19],60 ± 4%
same,"CFDA signal, Mean",[1]; [19],24142
same,% of Control (CFDA),[1]; [20],61 ± 3%
same,"CFDA signal, Mean",[1]; [20],24338
same,% of Control (CFDA),[1]; [21],79± 6%
same,"CFDA signal, Mean",[1]; [21],31811*
same,% of Control (CFDA),[1]; [22],93 ± 9%
same,"CFDA signal, Mean",[1]; [22],37544*
same,% of Control (CFDA),[1]; [23],98 ± 3%
same,"CFDA signal, Mean",[1]; [23],39516*
same,% of Control (CFDA),[1]; [24],60 ± 4%
same,"CFDA signal, Mean",[1]; [24],24819
same,% of Control (CFDA),[1]; [25],66 ± 6%
same,"CFDA signal, Mean",[1]; [25],27524
same,% of Control (CFDA),[1]; [26],85 ± 7%
same,"CFDA signal, Mean",[1]; [26],35341*
same,% of Control (CFDA),[1]; [27],96 ± 10%
same,"CFDA signal, Mean",[1]; [27],39844*
same,% of Control (CFDA),[1]; [28],88 ± 10%
same,"CFDA signal, Mean",[1]; [28],36632*
same,EC50,"[1]; Rattus norvegicus, 5 h, CFDA, Captisol formulation, 10 μM hydrogen peroxide, 5 h, read-out: EC50 ± SE",6.8 µM
same,EC50,"[1]; Rattus norvegicus, CFDA, across formulations and batches, read-out: EC50 range",3 to 10 µM
same,metabolite profile,"[2]; NS2, 120 min, human hepatocytes","metabolized to M1, M7, M8, and a low amount of M9, with some unchanged NS2 remaining; also recorded: a mono-oxidation metabolite (M), two oxidation+glucuronidation metabolites (M7 and M9), and a glucuronidation metabolite (M)"
same,Peak Areas Human,"[2]; human, 120 min, 3 μM",4.41E+08
same,metabolite profile,"[3]; NS2, 120 min, dog hepatocytes","metabolized to M1, M2, M5, and M6, with some unchanged NS2 remaining; also recorded: two different mono-oxidation products (M1 and M2) and two different glutathione (GSH) conjugates (M5 and M6)"
same,Peak Areas Dog,"[3]; dog, 120 min, 3 μM",4.79E+07
same,% of Control (PI),[4]; [9],167 ± 10%
same,"PI signal, Mean",[4]; [9],261
same,"PI signal, replicate wells",[4]; [9],246 (4×) and 323
same,% of Control (PI),[4]; [10],171 ± 9%
same,"PI signal, Mean",[4]; [10],266
same,"PI signal, replicate wells",[4]; [10],246 (2×) and 267 and 319 and 254
same,% of Control (PI),[4]; [11],108 ± 20%
same,"PI signal, Mean",[4]; [11],169*
same,"PI signal, replicate wells",[4]; [11],180 (3×) and 57 and 246
same,% of Control (PI),[4]; [12],115 ± 13%
same,"PI signal, Mean",[4]; [12],180*
same,"PI signal, replicate wells",[4]; [12],246 and 137 and 144 and 180 and 192
same,% of Control (PI),[4]; [13],130 ± 8%
same,"PI signal, Mean",[4]; [13],203*
same,"PI signal, replicate wells",[4]; [13],188 and 217 and 246 and 184 and 180
same,% of Control (PI),[4]; [14],189 ± 9%
same,"PI signal, Mean",[4]; [14],267
same,"PI signal, replicate wells",[4]; [14],315 and 259 and 246 and 263 and 254
same,% of Control (PI),[4]; [15],190 ± 9%
same,"PI signal, Mean",[4]; [15],268
same,"PI signal, replicate wells",[4]; [15],254 (3×) and 315 and 263
same,% of Control (PI),[4]; [16],115 ± 11%
same,"PI signal, Mean",[4]; [16],163*
same,"PI signal, replicate wells",[4]; [16],117 and 137 and 180 and 188 and 192
same,% of Control (PI),[4]; [17],113 ± 11%
same,"PI signal, Mean",[4]; [17],159*
same,"PI signal, replicate wells",[4]; [17],192 and 117 and 125 and 180 (2×)
same,% of Control (PI),[4]; [18],138 ± 6%
same,"PI signal, Mean",[4]; [18],195*
same,"PI signal, replicate wells",[4]; [18],188 and 180 (2×) and 204 and 221
same,% of Control (PI),[4]; [19],165 ± 22%
same,"PI signal, Mean",[4]; [19],232
same,"PI signal, replicate wells",[4]; [19],350 and 180 (2×) and 204 and 246
same,% of Control (PI),[4]; [20],172 ± 24%
same,"PI signal, Mean",[4]; [20],242
same,"PI signal, replicate wells",[4]; [20],180 and 192 and 184 and 315 and 337
same,% of Control (PI),[4]; [21],113 ± 12%
same,"PI signal, Mean",[4]; [21],160*
same,"PI signal, replicate wells",[4]; [21],180 and 188 and 117 (2×) and 196
same,% of Control (PI),[4]; [22],99 ± 7%
same,"PI signal, Mean",[4]; [22],139*
same,"PI signal, replicate wells",[4]; [22],180 and 133 and 129 (2×) and 125
same,% of Control (PI),[4]; [23],120 ± 6%
same,"PI signal, Mean",[4]; [23],169*
same,"PI signal, replicate wells",[4]; [23],180 (3×) and 133 and 172
same,% of Control (PI),[4]; [24],175 ± 17%
same,"PI signal, Mean",[4]; [24],275
same,"PI signal, replicate wells",[4]; [24],350 and 259 and 246 and 315 and 204
same,% of Control (PI),[4]; [25],143 ± 9%
same,"PI signal, Mean",[4]; [25],225
same,"PI signal, replicate wells",[4]; [25],188 and 250 and 246 (2×) and 196
same,% of Control (PI),[4]; [26],115 ± 2%
same,"PI signal, Mean",[4]; [26],181*
same,"PI signal, replicate wells",[4]; [26],180 (3×) and 192 and 172
same,% of Control (PI),[4]; [27],111 ± 18%
same,"PI signal, Mean",[4]; [27],175*
same,"PI signal, replicate wells",[4]; [27],246 (2×) and 133 and 125 (2×)
same,% of Control (PI),[4]; [28],113 ± 15%
same,"PI signal, Mean",[4]; [28],177*
same,"PI signal, replicate wells",[4]; [28],117 and 250 and 180 and 204 and 133
same,Full Efficacy Concentration,[4]; [29],10 µM
same,No effect Concentration,[4]; [29],1 µM
same,EC50,"[4]; PI, Captisol formulation, 10 μM hydrogen peroxide, 5 h, values with * are estimates, listed as NS2 (J-Star), read-out: EC50 ± SE",2.8 µM
same,Full Efficacy Concentration,[4]; [30],10 µM
same,No effect Concentration,[4]; [30],1 µM
same,EC50,"[4]; PI, DMSO formulation, 10 μM hydrogen peroxide, 5 h, values with * are estimates, listed as NS2 (J-Star), read-out: EC50 ± SE",1.1 µM
same,Full protection concentration,"[4]; PI, both NS2 formulations and both batches",10 µM
same,no effect concentration,"[4]; PI, both formulations and batches",1 µM
same,EC50,"[4]; Rattus norvegicus, 5 h, PI, DMSO formulation, 10 μM hydrogen peroxide, 5 h, values with * are estimates, read-out: EC50 ± SE",1.3 µM
same,EC50,"[4]; Rattus norvegicus, PI, across formulations and batches, read-out: EC50 range",1.1 to 2.8 µM
same,EC50,"[4]; Rattus norvegicus, PI, best available estimate, read-out: EC50, mean value for all PI data",2 ± 1 µM
same,metabolite profile,"[5]; NS2, 120 min, monkey hepatocytes","metabolized to M1, M3, M4, M7, M8, and a low amount of M9, with some unchanged NS2 remaining; also recorded: a mono-oxidation metabolite (M), four oxidation+glucuronidation metabolites (M3, M4, M7, and M9), and a glucuronidation metabolite (M)"
same,Peak Areas Cyno Monkey,"[5]; cynomolgus monkey, 120 min, 3 μM",1.74E+08
same,metabolite profile,"[6]; NS2, 120 min, rat hepatocytes","metabolized to M1, M7, and M8, with some unchanged NS2 remaining"
same,Peak Areas Rat,"[6]; rat, 120 min, 3 μM",3.14E+08
